In brackets after ≈: the same amount, converted by molar mass.
Legend:
Staphylococcus aureus = settings: cited from earlier work
SA ribosomes = test: S. aureus cell free in vitro transcription-translation assay (luciferase reporter); type: biochemical, Staphylococcus aureus; settings: for IC50, inhibition of protein synthesis: luciferase luminescence, S. aureus system
Procedure: The SA ribosomes activity was tested and its level was determined in a bacterial coupled transcription/translation assay system which measures the expression of the luciferase gene, according to Murray, R. W. et al. [Antimicrobial agents and chemotherapy, 2001, 45(6), p. 1900-1904]. Briefly, the luciferase gene was inserted into plasmid with T7 RNA polymerase promoter. The 30 μl reaction's volume contained 160 mM Hepes-KOH buffer (pH 7.5), 6.5% PEG 8K, 0.074 mg/ml tyrosine, 1.3 mM ATP, 0.86 mM CTP, GTP and UTP, 208 mM potassium glutamate, 83 mM creatine phosphate, 28 mM NH4OAc, 0.663 mM cAMP, 1.8 mM DTT, 0.036 mg/ml folinic acid, 0.174 mg/ml E. coli tRNA mix, 1 mM amino acid, 0.25 mg/ml creatine kinase, 0.027 mg/ml T7 RNA polymerase, ribosome free E. coli cell free extract, 300 nM of SA ribosomes and 0.003 μg/μl luciferase plasmid.
The reaction mixture was incubated at 37° C. for 1 hour, and erythromycin was added at a final concentration of 8 μM in order to terminate the reaction. 50 μl of Luciferin Assay Reagent (LAR, Promega) was added to the mixture and luminescence was measured in order to quantify the reaction's products.
FIGS. 20A-B present the results of in vitro transcription-translation cell-free inhibition assays of bacterial protein synthesis, wherein the inhibitory effect on protein expression in S. aureus system of BC-3205 is presented in FIG. 20A and of lefamulin is presented in FIG. 20B. The activity of the reporter protein (luciferase) in the presence of various concentrations of BC-3205 and lefamulin is shown as arbitrary unit of luminescence [a.u.].

For C=C[C@]1(C)C[C@@H](OC(=O)CS[C@H]2CCCN(C(=O)[C@H](N)C(C)C)C2)[C@]2(C)[C@H](C)CC[C@]3(CCC(=O)[C@H]32)[C@@H](C)[C@@H]1O [BC-3205], the “MIC against SA” value (Staphylococcus aureus) is given as 0.06 µg/mL (≈ 0.104 µM), the “potency against SA relative to linezolid” value (Staphylococcus aureus; more potent than linezolid) is given as 16-32 fold and the “IC50, inhibition of protein synthesis” value (SA ribosomes) is given as 0.42 µg/mL.
In the case of C=C[C@]1(C)C[C@@H](OC(=O)CS[C@@H]2CC[C@@H](N)C[C@H]2O)[C@]2(C)[C@H](C)CC[C@]3(CCC(=O)[C@H]32)[C@@H](C)[C@@H]1O [lefamulin], the “IC50, inhibition of protein synthesis” value (SA ribosomes) was 0.09 µg/mL.
With CCC[C@@H]1C[C@@H](C(=O)N[C@@H]([C@H]2O[C@H](SC)[C@H](O)[C@@H](O)[C@H]2O)[C@@H](C)O)N(C)C1 [lincomycin] the “IC50 against S. aureus ribosome compared to E. coli ones” value (SA ribosomes; in words only, data not shown) was “super low IC50”.
